Laboratory results taken from patent publication US9695155B2, “Herbicidal substituted pyrimidinyloxy benzene compounds” (E. I. DU PONT DE NEMOURS AND COMPANY, priority 2013, dated 2017).

Legend:
barnyardgrass [1] = test: Test A preemergence; assay type: in vivo, Echinochloa crus-galli; conditions: for Barnyardgrass plant response rating: 500 g ai/ha
How it was run: (§1)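 Injury scores run from 0, no effect, to 100, complete control, judged by eye against untreated plants roughly 10 days after treatment. Chemicals carried a surfactant in a non-phytotoxic solvent and went onto loam–sand soil preemergence or onto one- to two-leaf seedlings postemergence.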

large (Lg) crabgrass [2] = test: Test A preemergence; assay type: in vivo, Digitaria sanguinalis; conditions: for Crabgrass, Large plant response rating: 500 g ai/ha
How it was run: as §1

giant foxtail [3] = test: Test A preemergence; assay type: in vivo, Setaria faberii; conditions: for Plant response rating, Foxtail, Giant: 125 g ai/ha
How it was run: as §1

morningglory [4] = test: Test A preemergence; assay type: in vivo, Ipomoea spp.
How it was run: as §1

pigweed [5] = test: Test A preemergence; assay type: in vivo, Amaranthus retroflexus
How it was run: as §1

velvetleaf [6] = test: Test A preemergence; assay type: in vivo, Abutilon theophrasti
How it was run: as §1

wheat [7] = test: Test A preemergence; assay type: in vivo, Triticum aestivum
How it was run: as §1

corn [8] = test: Test A preemergence; assay type: in vivo, Zea mays; conditions: for Corn plant response rating: 500 g ai/ha
How it was run: as §1

barnyardgrass [9] = test: Test A postemergence; assay type: in vivo, Echinochloa crus-galli
How it was run: as §1

large (Lg) crabgrass [10] = test: Test A postemergence; assay type: in vivo, Digitaria sanguinalis
How it was run: as §1

giant foxtail [11] = test: Test A postemergence; assay type: in vivo, Setaria faberii
How it was run: as §1

morningglory [12] = test: Test A postemergence; assay type: in vivo, Ipomoea spp.
How it was run: as §1

pigweed [13] = test: Test A postemergence; assay type: in vivo, Amaranthus retroflexus
How it was run: as §1

velvetleaf [14] = test: Test A postemergence; assay type: in vivo, Abutilon theophrasti
How it was run: as §1

wheat [15] = test: Test A postemergence; assay type: in vivo, Triticum aestivum
How it was run: as §1

corn [16] = test: Test A postemergence; assay type: in vivo, Zea mays
How it was run: as §1

rice = test: Test B flooded paddy test; assay type: in vivo, Oryza sativa; conditions: Flood, 250 g ai/ha; 0 to 100 scale where 0 is no effect and 100 is complete control
How it was run: (§2)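 Visual ratings on a 0 to 100 scale, where 100 means complete control, compared treated plants with controls after 13 to 15 days in a greenhouse. Treatment went into paddy water 3 cm deep over the soil, applied to plants at the 2-leaf stage.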

sedge, umbrella = test: Test B flooded paddy test; assay type: in vivo, Cyperus difformis; conditions: Flood, 250 g ai/ha; 0 to 100 scale where 0 is no effect and 100 is complete control
How it was run: as §2

Heteranthera limosa = test: Test B flooded paddy test; assay type: in vivo; conditions: Flood, 250 g ai/ha; 0 to 100 scale where 0 is no effect and 100 is complete control
How it was run: as §2

barnyardgrass [17] = test: Test B flooded paddy test; assay type: in vivo, Echinochloa crus-galli; conditions: Flood, 250 g ai/ha; 0 to 100 scale where 0 is no effect and 100 is complete control
How it was run: as §2

[18] = 125 g ai/ha, 0 to 100 scale where 0 is no effect and 100 is complete control
[19] = 0 to 100 scale where 0 is no effect and 100 is complete control
[20] = 500 g ai/ha, 0 to 100 scale where 0 is no effect and 100 is complete control
[21] = 1000 g ai/ha, 0 to 100 scale, 0 no effect, 100 complete control
[22] = 1000 g ai/ha, 0 to 100 scale, 0 no effect, 100 complete control, approx. 10 days
[23] = 0 to 100 scale, 0 no effect, 100 complete control, approx. 10 days
[24] = 500 g ai/ha, 0 to 100 scale, 0 no effect, 100 complete control, approx. 10 days
[25] = 500 g ai/ha, 0 to 100 scale, 0 no effect, 100 complete control

N#Cc1cnc(Oc2cccc(C(F)F)c2-n2cc(Br)cn2)nc1 [Compound 175]
0: Plant response rating, Barnyardgrass (barnyardgrass [1]; [18]) | Barnyardgrass plant response rating (barnyardgrass [1]; [19]) | Plant response rating, Crabgrass, Large (large (Lg) crabgrass [2]; [18]) | Crabgrass, Large plant response rating (large (Lg) crabgrass [2]; [19]) | Plant response rating, Foxtail, Giant (giant foxtail [3]; [19]) | Foxtail, Giant plant response rating (giant foxtail [3]; [20]) | Morningglory plant response rating (0 to 100 scale) (morningglory [4]; 125 g ai/ha) | Morningglory plant response rating (morningglory [4]; [20]) | Pigweed plant response rating (0 to 100 scale) (pigweed [5]; 125 g ai/ha) | Pigweed plant response rating (pigweed [5]; [20]) | Velvetleaf plant response rating (0 to 100 scale) (velvetleaf [6]; 125 g ai/ha) | Velvetleaf plant response rating (velvetleaf [6]; [20]) | Wheat plant response rating (0 to 100 scale) (wheat [7]; 125 g ai/ha) | Wheat plant response rating (wheat [7]; [20]) | Plant response rating, Corn (corn [8]; [18]) | Corn plant response rating (corn [8]; [19]) | Barnyardgrass plant response rating (barnyardgrass [9]; [18]) | Plant response rating, Barnyardgrass (barnyardgrass [9]; [20]) | Crabgrass, Large plant response rating (large (Lg) crabgrass [10]; [18]) | Plant response rating, Crabgrass, Large (large (Lg) crabgrass [10]; [20]) | Foxtail, Giant plant response rating (giant foxtail [11]; [18]) | Plant response rating, Foxtail, Giant (giant foxtail [11]; [20]) | Morningglory plant response rating (morningglory [12]; [18]) | Plant response rating, Morningglory (morningglory [12]; [20]) | Pigweed plant response rating (pigweed [13]; [18]) | Plant response rating, Pigweed (pigweed [13]; [20]) | Velvetleaf plant response rating (velvetleaf [14]; [18]) | Plant response rating, Velvetleaf (velvetleaf [14]; [20]) | Wheat plant response rating (wheat [15]; [18]) | Plant response rating, Wheat (wheat [15]; [20]) | Corn plant response rating (corn [16]; [18]) | Plant response rating, Corn (corn [16]; [20]) | Plant response rating, Rice (rice) | Plant response rating, Sedge, Umbrella (sedge, umbrella) | Plant response rating, Ducksalad (Heteranthera limosa) | Plant response rating, Barnyardgrass (barnyardgrass [17])

Brc1cnc(Oc2ccccc2-n2cccn2)nc1 [Compound 13]
100: Plant response rating, Crabgrass, Large (large (Lg) crabgrass [2]; [21]) | Foxtail, Giant plant response rating (giant foxtail [3]; [22]) | Pigweed plant response rating (pigweed [5]; [22]) | Velvetleaf plant response rating (velvetleaf [6]; [22]) | Plant response rating, Foxtail, Giant (giant foxtail [11]; [21]) | Plant response rating, Pigweed (pigweed [13]; [21]) | Plant response rating, Velvetleaf (velvetleaf [14]; [21])
30: Plant response rating, Ducksalad (Heteranthera limosa)
20: Wheat plant response rating (wheat [7]; [22])
60: Plant response rating, Wheat (wheat [15]; [21])
40: Plant response rating, Corn (corn [16]; [21])
80: Plant response rating, Barnyardgrass (barnyardgrass [1]; [21])
90: Plant response rating, Barnyardgrass (barnyardgrass [9]; [21]) | Plant response rating, Crabgrass, Large (large (Lg) crabgrass [10]; [21]) | Plant response rating, Morningglory (morningglory [12]; [21])
0: Morningglory plant response rating (morningglory [4]; [22]) | Plant response rating, Corn (corn [8]; [21]) | Plant response rating, Rice (rice) | Plant response rating, Sedge, Umbrella (sedge, umbrella) | Plant response rating, Barnyardgrass (barnyardgrass [17])

Cc1cnn(-c2ccccc2Oc2ncc(Cl)cn2)c1 [Compound 23]
60: Plant response rating, Crabgrass, Large (large (Lg) crabgrass [10]; [25]) | Plant response rating, Corn (corn [16]; [25])
90: Plant response rating, Crabgrass, Large (large (Lg) crabgrass [2]; [18]) | Crabgrass, Large plant response rating (large (Lg) crabgrass [2]; [23]) | Foxtail, Giant plant response rating (giant foxtail [3]; [24]) | Plant response rating, Velvetleaf (velvetleaf [6]; [18]) | Velvetleaf plant response rating (velvetleaf [6]; [24]) | Plant response rating, Foxtail, Giant (giant foxtail [11]; [25]) | Plant response rating, Morningglory (morningglory [12]; [25]) | Plant response rating, Pigweed (pigweed [13]; [18])
70: Plant response rating, Foxtail, Giant (giant foxtail [3]; [19]) | Plant response rating, Sedge, Umbrella (sedge, umbrella)
20: Plant response rating, Barnyardgrass (barnyardgrass [1]; [18]) | Corn plant response rating (corn [8]; [23]) | Plant response rating, Crabgrass, Large (large (Lg) crabgrass [10]; [18]) | Plant response rating, Wheat (wheat [15]; [25]) | Plant response rating, Barnyardgrass (barnyardgrass [17])
0: Plant response rating, Morningglory (morningglory [4]; [18]) | Morningglory plant response rating (morningglory [4]; [24]) | Plant response rating, Wheat (wheat [7]; [18]) | Wheat plant response rating (wheat [7]; [24]) | Plant response rating, Corn (corn [8]; [18]) | Plant response rating, Barnyardgrass (barnyardgrass [9]; [18]) | Plant response rating, Wheat (wheat [15]; [18]) | Plant response rating, Corn (corn [16]; [18])
80: Plant response rating, Velvetleaf (velvetleaf [14]; [18]) | Plant response rating, Ducksalad (Heteranthera limosa)
50: Barnyardgrass plant response rating (barnyardgrass [1]; [23]) | Plant response rating, Morningglory (morningglory [12]; [18])
40: Plant response rating, Barnyardgrass (barnyardgrass [9]; [25]) | Plant response rating, Foxtail, Giant (giant foxtail [11]; [18])
100: Plant response rating, Pigweed (pigweed [5]; [18]) | Pigweed plant response rating (pigweed [5]; [24]) | Plant response rating, Pigweed (pigweed [13]; [25]) | Plant response rating, Velvetleaf (velvetleaf [14]; [25])
35: Plant response rating, Rice (rice)
